Assay results from the METLIN SMRT retention time set (Domingo-Almenara et al. 2019).

assay: gradient 5% acetonitrile 3 min, to 50% in 2 min, to 85% in 15 min, held 3 min, 100 µL/min; conditions: column: Zorbax Extend-C18 2.1 x 50 mm; eluents: water / acetonitrile, 0.1% formic acid
In short: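 Retention times of pure standards were taken from adduct peaks that were selected by computer and manually inspected. Over 3 months, mixtures of ~100 molecules were run by HPLC–quadrupole time-of-flight mass spectrometry in positive and negative ionization mode. The Zorbax Extend-C18 column (2.1 × 50 mm, 1.8 μm) ran at 100 μL/min in water and acetonitrile, each containing 0.1% formic acid, with 40 μL dead volume and 900 μL dwell volume.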

| SMILES | RP-LC retention time |
| --- | --- |
| O=c1n(Cc2cccc(C(F)(F)F)c2)nc2ccc(S(=O)(=O)N3CCCCC3)cn12 | 1030 s |
| CCOC(=O)c1ccc(CN2C(=O)CSC2=O)cc1 | 786 s |
| Cc1nnc(-c2c(S(=O)(=O)NCc3ccco3)c(C)n(C)c2C)o1 | 729 s |
| CC(C)Cc1csc(-c2csc(S(=O)(=O)NCc3ccccc3F)c2)n1 | 1140 s |
| CCC(C)C(NC(=O)Cc1cccc(OC)c1)C(=O)Nc1nc2ccccc2[nH]1 (stereo not given) | 733 s |
| CN(CCNC(=O)C1CCc2nc(N3CCOCC3)ncc2C1)C1CCCCC1 (stereo not given) | 586 s |
| Cc1cc(OCC(=O)N[C@@H](CC(C)C)C(=O)O)c2c3c(c(=O)oc2c1)CCC3 | 822 s |
| CC(C)(C)NC[C@@H](O)COc1cccc2c1CCCC2=O | 689 s |
| COc1ccc2c(c1)C1(CCN(C(=O)CC(C)C)C1)C(=O)N2C (stereo not given) | 722 s |
| O=C(NCCC1=CCCCC1)C1CCCN(c2ccncc2)C1 (stereo not given) | 645 s |
| COc1ccc(Cl)cc1C(=O)NCC1(O)CCOCC1 | 622 s |
| O=C(Nc1cnn(-c2ncncc2N2CCCCC2)c1)C1CCCCC1 | 821 s |
| CCOc1cc(=O)n2c(c1C(=O)OCc1cccc(F)c1)CCCCC2 | 934 s |
| CCc1ccc(NC(=O)C2Cc3cc(S(=O)(=O)N4CCCCC4)ccc3N2C(C)=O)cc1 (stereo not given) | 864 s |
| CCN1c2ccccc2C(=O)NC12CCN(C(=O)c1cc(C)cc(C)c1)CC2 | 868 s |
| COc1cc(NS(=O)(=O)c2ccc3c(c2)C(=O)N(C)c2ncccc2O3)cc(OC)c1 | 868 s |
| O=C(OCC(=O)c1ccc(Cl)cc1Cl)c1ccc2ccccc2n1 | 991 s |
| Cc1cc(NC(=O)C(=O)c2c[nH]c3ccccc23)ccc1Br | 1120 s |
| COc1ccc(NC(=O)Cn2c(=O)n(-c3ccccc3)c(=O)c3c2cc(C)n3C)cc1OC | 791 s |
| Cc1cc(C)cc(N2CCC(NC(=O)CC(C)C)C2=O)c1 (stereo not given) | 814 s |
| Cc1ccc(CNC(=O)C(C)C2CCOCC2)o1 (stereo not given) | 677 s |
| COCCN1CCCCc2cc(C(N)=O)sc21 | 708 s |

| SMILES | RP-LC retention time |
| --- | --- |
| COCCN1CCC(CNS(=O)(=O)c2ccc(OCC(C)C)cc2)CC1 | 587 s |
| Cc1sc(C)c(S(=O)(=O)N2CCC(C)CC2)c1-c1cc(C(F)(F)F)on1 | 1320 s |
| O=C(NCCc1ccccc1)C1=C2CCCN2c2ccc(F)cc2S1(=O)=O | 909 s |
| CC(C)n1c(N2CCN(C(=O)c3ccc(F)cc3)CC2)cc(=O)n(C(C)C)c1=O | 792 s |
| CSCC(=O)N1CCC(C2CCN(C(C)=O)CC2)C1 (stereo not given) | 624 s |
| CCCC(=O)Nc1cc2c(cc1SC(C)C)n(C)c(=O)n2C | 852 s |
| Fc1cccc(CN2CCc3nc(N4CCN(c5ncccn5)CC4)ncc3C2)c1 | 633 s |
| CCC(=O)NCc1nc2c(n1CC)CN(S(=O)(=O)c1ccc(C)c(C)c1)CC2 | 583 s |
| CCOC(=O)c1c(C)oc2nc(C)nc(NCc3ccc(OC)cc3)c12 | 1080 s |
| O=C(Nc1nccs1)C1CC(=O)N(c2n[nH]c3cccc(F)c23)C1 (stereo not given) | 650 s |
| O=C(Cn1cnc2c(sc3nc(-c4ccccc4)ccc32)c1=O)Nc1ccccc1F | 993 s |
| CC(C)(C)C(=O)N1CCC(F)(c2nc(-c3ccncc3)no2)CC1 | 802 s |
| O=C(CCC1CCCN(S(=O)(=O)c2ccc(F)cc2)C1)NC1CC1 (stereo not given) | 764 s |
| CC(CCc1ccccc1)NC(=O)c1cc2sccc2n1Cc1ccc(Cl)cc1 (stereo not given) | 1260 s |
| Cc1cccc2nnc(N3CCN(C(=O)c4ccc(Br)cc4)CC3)n12 | 683 s |
| COC(=O)C1=C(N)Oc2cc(C)n(CCN(C)C)c(=O)c2C1c1ccccc1F (stereo not given) | 616 s |
| O=C(CCC1CCN(S(=O)(=O)c2ccccc2)CC1)NC1CCCCCC1 | 958 s |
| CC(C)NC(=O)NCCC1CCN(S(=O)(=O)c2ccc(F)cc2)CC1 | 782 s |
| COc1cc(C(=O)C(=O)c2ccc(O)c(OC)c2)ccc1O | 758 s |
| CN1C(=O)c2cccn2CC1CNS(=O)(=O)Cc1ccccc1F (stereo not given) | 670 s |
| CCCN1CCN(C(=O)C2CCN(S(=O)(=O)c3ccc4c(c3)NC(=O)CO4)CC2)CC1 | 586 s |

Next, values leading:

| RP-LC retention time | SMILES |
| --- | --- |
| 617 s | COc1ccc(Cl)cc1N1CC(c2nc3ccccc3n2CCN2CCOCC2)CC1=O (stereo not given) |
| 806 s | CC1=C(c2ccc(F)cc2)S(=O)(=O)N=C1N1CCCN(C(=O)c2cccs2)CC1 |
| 612 s | COc1ccc(Cc2nnc(C3CCN(C(=O)c4ccc(=O)[nH]c4)CC3)s2)cc1 |
| 1030 s | COc1ccccc1-c1nnc(C2CCN(S(=O)(=O)c3c(C)cc(C)cc3C)CC2)o1 |
| 1190 s | Cc1ccc(C)c(-c2nc(-c3ccc4c(c3)oc(=O)n4C(C)C)no2)c1 |
| 620 s | Cc1cc(NC(=O)CSc2ccc3nnc(-c4cccs4)n3n2)no1 |
| 784 s | CC(=O)N1CCc2cc(S(=O)(=O)Nc3ccc4c(c3)-c3nc(C)sc3CC4)ccc21 |
| 620 s | CCOc1ccc(CNC(=O)c2cc(NC(C)=O)cc3nc(C)ccc23)cc1 |
| 846 s | CC(C)CNC(=O)N1CCC(c2noc(-c3ccccc3)n2)C1 (stereo not given) |
| 692 s | Fc1ccc(-c2ccc(CNc3ncn[nH]3)o2)cc1Cl |
| 1060 s | Cc1noc(C)c1CC(=O)N1CC(F)(F)C[C@H]1COc1ccc2c(c1)CCC2 |
| 919 s | Cc1ccc(-n2nc(C)c(S(=O)(=O)N3CCC(C(=O)NCc4cccs4)CC3)c2C)cc1 |
| 1140 s | Cc1cccc(-c2nc(C3CC(=O)N(c4ccc(F)c(Cl)c4)C3)no2)c1 (stereo not given) |
| 964 s | Cn1nc(-c2nc(-c3cccc(F)c3)no2)c2c1CCN(C(=O)NC(C)(C)C)C2 |
| 797 s | Cc1ccc(F)cc1S(=O)(=O)N1CCn2c(nn(CC3CC3)c2=O)C1 |
| 649 s | O=C(CCC1CCN(c2cc(NC3CC3)ncn2)CC1)NCc1ccc(F)cc1 |
| 900 s | CCCCC(=O)Nc1nc(-c2ccc3c(c2)N(C)C(=O)CO3)cs1 |
| 679 s | CCC1CCCCN1Cc1nc(Cn2ccn3nc(-c4ccc(OC)cc4)cc3c2=O)no1 (stereo not given) |
| 937 s | O=C(Nc1ccc(N2CCN(C3CCCC3)C2=O)nc1)c1ccc(Cl)cc1 |
| 1060 s | CCc1sc(NC(=O)c2cc(C)on2)nc1-c1ccccc1 |
| 611 s | Cc1nnc(-c2nnc(N3CCN(c4ccccn4)CC3)c3ccccc23)o1 |
| 1140 s | CCCN1C(=O)COc2ccc(-c3csc(NC(=O)c4ccc(Cl)cc4)n3)cc21 |
| 1160 s | CCc1ccc(-c2noc(Cn3c(=O)n(CC)c(=O)c4ccccc43)n2)cc1 |
| 823 s | COc1ccccc1-c1noc(C2CCCN2C(=O)Nc2cccc(C#N)c2)n1 (stereo not given) |

| RP-LC retention time | SMILES |
| --- | --- |
| 689 s | COc1cc([C@@H]2c3cc4c(cc3[C@H](O)[C@@H](CO)[C@@H]2C(=O)NC2CCCC2)OCO4)cc(OC)c1OC |
| 608 s | COc1ccccc1N1CCN(CCNS(=O)(=O)c2ccc(F)c(C)c2)CC1 |
| 719 s | CC(C)N1CCn2c(nc3cc(C(=O)NCc4ccccc4Cl)ccc32)C1=O |
| 822 s | CCOc1ccc(-c2nc(CNC(=O)Nc3ccc(OC)c(OC)c3)c(C)o2)cc1 |
| 760 s | CC(=O)c1cccc(NC(=O)Cn2cc3c(n2)CCCC3)c1 |
| 1100 s | CCOc1ccc(-c2csc3c(=O)n(CC(C)C)cnc23)cc1OCC |
| 708 s | COc1ccc(NC(=O)NCCc2nc3cccnc3n2C2CCCC2)c(OC)c1 |
| 772 s | CC1CCN(c2cncnc2-n2cc(NC(=O)Nc3cccc(F)c3)cn2)CC1 |
| 814 s | COc1ccc(C(=O)Nc2nc(-c3ccc4c(c3)NC(=O)CO4)c(C)s2)cc1OC |
| 824 s | O=C(NCC1CCCCC1)c1ccc(CN2C(=O)C3CCCN3C(=O)c3ccccc32)cc1 (stereo not given) |
| 553 s | CCN(CC)C(=O)N1CCC(c2noc(COc3ccc(F)cc3)n2)C1 (stereo not given) |
| 890 s | Cc1nc(N2CCOCC2)c2c(C(=O)Nc3cccc(Cl)c3)c(C)oc2n1 |
| 638 s | Cc1cccc(-c2nc3nc(C)cc(N4CCN(c5ccccn5)CC4)n3n2)c1 |
| 656 s | CN1CCCN(C(=O)c2cn(-c3ccc(-c4nc(C(C)(C)C)no4)cn3)cn2)CC1 |
| 1110 s | Cc1cc(NC(=O)C2CCCN(S(=O)(=O)c3cc(-c4noc(C5CCCC5)n4)cs3)C2)no1 (stereo not given) |
| 721 s | CCOc1cc(-c2ccc(F)cc2)nc2ccc(NC(=O)C3CC3)cc12 |
| 855 s | Cc1cc(NC2CCCC2)n2nc(-c3ccc(Cl)cc3)c(C)c2n1 |
| 783 s | CNC(=O)c1cc(-c2ccc(OC)cc2)n(C)c1C |
| 723 s | CCCn1c(CCNC(=O)c2ccc(CC)cc2)nc2cccnc21 |
| 627 s | Cc1cccc2c1ncn1c(=O)n(CC(=O)NCc3ccccc3Cl)nc21 |
| 784 s | O=C(c1ccccn1)N1CCN(C(=O)c2nnn3c2COC(c2ccc(Cl)cc2)C3)CC1 (stereo not given) |
| 615 s | CCS(=O)(=O)N1CCCCC1c1nc(-c2cccnc2)n[nH]1 (stereo not given) |
| 986 s | O=C(Cn1cc(-c2nc(-c3ccc(Cl)cc3)no2)ccc1=O)Nc1ccc2c(c1)OCO2 |
